Experimental data reported in ChEMBL document CHEMBL3507680, “University of Dundee, Gates Library screen for HepG2 cell viability”.

Experiment: Human HepG2 cell viability assay in 384 well format
Type: toxicity, cell-based
Set-up: dose 125 nL, time 70.5 hour; cytotoxicity at 70.5 h: concentration not given beside the values
Conditions: HepG2 cells, read-out: Inhibition

O=C(c1ccc(F)cc1)N1C[C@@H]2OCCN(c3ncccn3)[C@@H]2C1
cytotoxicity at 70.5 h: 4.02%

O=C(CCc1cccs1)N1CCCCC1Cn1cccn1 (stereo not given)
cytotoxicity at 70.5 h: -5.08%

CC1(C)CC(N(Cc2cccnc2)Cc2cccnc2)CC(C)(C)N1
cytotoxicity at 70.5 h: -1.63%

COC(=O)c1ccc(S(=O)(=O)NCc2cccnc2N(C)C)cc1
cytotoxicity at 70.5 h: 29.6%

Cc1ccc(N(C)CC(O)COCc2ccccc2F)c(C)c1 (stereo not given)
cytotoxicity at 70.5 h: -0.728%

COc1cccc2c1OCC(CNC(=O)Cc1cnccn1)C2 (stereo not given)
cytotoxicity at 70.5 h: -3.59%

COCCN(CCC#N)Cn1cc(Cl)cn1
cytotoxicity at 70.5 h: -2.01%

Cc1cc(C)cc(OCCN(C)C2CCOC2=O)c1 (stereo not given)
cytotoxicity at 70.5 h: 1.42%

COc1ncccc1CN1C[C@H](C(=O)N2CCCO2)[C@@H]2CCO[C@@H]2C1
cytotoxicity at 70.5 h: -6.23%

Cc1occc1C(=O)N1CCc2ncnc(-c3cnn(C)c3)c2CC1
cytotoxicity at 70.5 h: -8.07%

O=C([C@@H]1COC[C@H]2CN(C3CCOCC3)C[C@H]21)N1CCCO1
cytotoxicity at 70.5 h: 14.5%

OC1CCCN(Cc2ccnc(-c3cccnc3)n2)C1 (stereo not given)
cytotoxicity at 70.5 h: -4.64%

CC(=O)NCCNC(=O)c1cnc(-c2ccc(C)cc2C)s1
cytotoxicity at 70.5 h: -6.99%

CSCc1cc(C(=O)NC2(C#N)CC2)ccc1F
cytotoxicity at 70.5 h: -0.691%

CC(C)c1ncncc1C(=O)N1CCCN(Cc2ccccc2)CC1
cytotoxicity at 70.5 h: -15.3%

Cc1cc(CS(=O)(=O)CC(=O)N2c3ccccc3CC2C)no1 (stereo not given)
cytotoxicity at 70.5 h: -0.335%

CCc1nc(CNC2CCN(S(C)(=O)=O)CC2)cs1
cytotoxicity at 70.5 h: -0.997%

Cn1cc(C(=O)NCc2cncc3c2CCN(c2ccccn2)C3)cn1
cytotoxicity at 70.5 h: 17.4%

CC(=O)NC1CCCN(C(=O)NCc2cc[nH]n2)C1 (stereo not given)
cytotoxicity at 70.5 h: -1.94%

N#Cc1c(SCCN2CCOCC2)sc2c(O)cc(O)nc12
cytotoxicity at 70.5 h: 17.3%

O=C(C1SCCc2sccc21)N1CCC(O)CC1 (stereo not given)
cytotoxicity at 70.5 h: 1.7%

CC(C)(C)c1ccc2c(c1)CCN2C(=O)c1ccc(=O)[nH]n1
cytotoxicity at 70.5 h: -5.53%

CCOCCN1CCN(CC(O)c2cc(Cl)ccc2Cl)CC1 (stereo not given)
cytotoxicity at 70.5 h: -5.82%

Cc1csc(N2CCN(C(=O)c3cc(Cl)c[nH]3)CC2)n1
cytotoxicity at 70.5 h: -0.933%

CC(=O)N1CCOC[C@H](OCC(=O)N(C)C)C1
cytotoxicity at 70.5 h: 0.496%

CCCc1cc(C(=O)NCCC2=CCCCC2)[nH]n1
cytotoxicity at 70.5 h: -9.53%

CCN(CC1CCCO1)C(=O)Nc1cc(OC)c(OC)cc1C (stereo not given)
cytotoxicity at 70.5 h: -14.3%

COc1ccc(C(C(=O)O)N2CCC(O)(c3cccnc3)CC2)cc1F (stereo not given)
cytotoxicity at 70.5 h: 6.42%

FC(F)(F)c1nc(C2CCNCC2)no1
cytotoxicity at 70.5 h: -2.97%

N#Cc1cccc(OCCN2CCn3c(nnc3C3CC3)C2)c1
cytotoxicity at 70.5 h: -11%

COc1cc(N2CC[C@H]3O[C@@H](C(=O)NC4CCCC4)CC[C@H]32)ncn1
cytotoxicity at 70.5 h: -9.02%

Cc1ncn(CCNC(=O)Nc2ccc(OC(F)(F)F)cc2)c(=O)c1C
cytotoxicity at 70.5 h: -3.32%

Cn1cccc1C(=O)N1CCC2(CC1)COC(COc1ccccn1)C2 (stereo not given)
cytotoxicity at 70.5 h: -6.63%

O=C(c1ccsc1)N1C[C@H]2CN(Cc3cccc(F)c3)C(=O)[C@H]2C1
cytotoxicity at 70.5 h: -1.45%

c1cn(Cc2nnc(C3CCN(c4nccs4)CC3)n2C2CC2)cn1
cytotoxicity at 70.5 h: -4.16%

CN1CCN(C(=O)c2cnc3c(cnn3C3CCCC3)c2)CC1
cytotoxicity at 70.5 h: -10%

O=C(O)C(c1cccc2c1OCC2)N1CCC(N2CCCC2)CC1 (stereo not given)
cytotoxicity at 70.5 h: -0.16%

COCc1ncc(CN2CCC(Oc3ccc(OC)cc3)CC2)cn1
cytotoxicity at 70.5 h: -20.2%

COc1cccc(C2CC(=O)Nc3nc(N4CCOCC4)sc32)c1OC (stereo not given)
cytotoxicity at 70.5 h: -8.01%

CN1CCOC(C(=O)Nc2ccc3[nH]nnc3c2)C1 (stereo not given)
cytotoxicity at 70.5 h: -3.75%

CC(=O)N1CCS(=O)(=O)[C@@H]2CCN(CC(C)C)CC[C@@H]21
cytotoxicity at 70.5 h: -6.52%

Cc1cnn(CC2CN(CC(=O)NCCc3cccs3)CCO2)c1 (stereo not given)
cytotoxicity at 70.5 h: -2.04%

CCc1ncc2c(n1)CN(Cc1nnc(CC)o1)CC2
cytotoxicity at 70.5 h: -79.4%

FC(F)(F)c1nnc2n1CCN(c1nc(C3CC3)ns1)C2
cytotoxicity at 70.5 h: -1.08%

CC1(NC(=O)CNC(=O)C(C)(C)C)CCc2ccccc2C1 (stereo not given)
cytotoxicity at 70.5 h: -7.61%

CN(Cc1ccc(Cl)s1)C(=O)NCCN1CCCCCC1=O
cytotoxicity at 70.5 h: -3.32%

Cn1ccnc1SCCNc1nccc(C(F)(F)F)n1
cytotoxicity at 70.5 h: 16%

CN(C)CCN(Cc1ccc(Cl)cc1)C(=O)c1cc[nH]n1
cytotoxicity at 70.5 h: -3.35%

CCOc1cccc(CNc2ccccc2OC)c1O
cytotoxicity at 70.5 h: -8.56%

CCNC(=O)NC(=O)C(C)N(C)CCOc1ccccc1C (stereo not given)
cytotoxicity at 70.5 h: -12.4%

CN1CCN(c2ccncc2S(=O)(=O)N2CCCCC2)CC1
cytotoxicity at 70.5 h: 0.146%

OC1(CNc2ccc(Br)cn2)CCOCC1
cytotoxicity at 70.5 h: -2.5%

Cc1nccn1CCC(=O)N1CCCN(CCCc2ccccc2)CC1
cytotoxicity at 70.5 h: 1.37%

CC(C)Cc1cc(C(=O)NCC(O)c2ccc(F)cc2)n(C)n1 (stereo not given)
cytotoxicity at 70.5 h: -16.2%

Cc1nn(C)cc1CN1CCC(c2ncc(Cl)cc2S(C)(=O)=O)CC1
cytotoxicity at 70.5 h: -6.84%

c1csc(CN2CCCC3(COCCN(Cc4c[nH]nn4)C3)C2)c1 (stereo not given)
cytotoxicity at 70.5 h: 1.75%

CSCCC(=O)N1CCCC1c1ccsc1 (stereo not given)
cytotoxicity at 70.5 h: 13.3%

Cc1cc(CN2C[C@@H]3COC[C@]3(CNC(=O)N3CCCC3)C2)no1
cytotoxicity at 70.5 h: 0.0997%

CN(C)C(=O)CO[C@@H]1CC[C@H]2[C@H]1OCCN2c1ncccn1
cytotoxicity at 70.5 h: 4.77%

CC(Cc1cccs1)C(=O)NCc1cccc(N2CCCC2=O)c1 (stereo not given)
cytotoxicity at 70.5 h: -8.97%

O=S(=O)(N1CCCCCC1)N1CCN(Cc2ccc(F)cc2Br)CC1
cytotoxicity at 70.5 h: -4.85%

O=C(NCCn1ccnc1)c1cc(Br)c[nH]1
cytotoxicity at 70.5 h: -8.18%

COC(=O)C1CN(Cc2cc(F)ccc2Br)CCO1 (stereo not given)
cytotoxicity at 70.5 h: -3.09%

Cc1nnc(NC(=O)CN2CCc3c(nc(C(C)C)n3C)C2)s1
cytotoxicity at 70.5 h: -8.19%

COCCN1CCC2(C1)CN(c1ncc(F)cn1)C2
cytotoxicity at 70.5 h: 0.704%

COc1ncc(NCc2ccc(C#N)cc2)cc1C(N)=O
cytotoxicity at 70.5 h: -4.6%

Cn1cccc1CN1CCC2(CC1)CN(c1ccccc1)C(=O)CO2
cytotoxicity at 70.5 h: 2.21%

CN1C(=O)C(c2cccnc2)CC12CCN(C(=O)c1ccc[nH]1)CC2 (stereo not given)
cytotoxicity at 70.5 h: 15.4%

Cc1noc(Cl)c1CCC(=O)N1CCN(c2ccccc2)CC1
cytotoxicity at 70.5 h: 7.33%

Cc1ccc(CNC(=O)NC2CCN(CC(F)F)CC2)cc1
cytotoxicity at 70.5 h: -4.96%

O=C(c1ccsc1)N1C[C@H]2CCC[C@@]2(COCc2cccnc2)C1
cytotoxicity at 70.5 h: 22.5%

O=C1CC(c2ccc3c(c2)OCO3)c2c(n3ccsc3nc2=O)N1 (stereo not given)
cytotoxicity at 70.5 h: -9.84%

Cn1ccnc1CNC(=O)Nc1ccc(OC2CCC2)c(F)c1
cytotoxicity at 70.5 h: 20%

Cc1nc2cc(=O)[nH]n2c(C)c1CC(=O)NC(C)C
cytotoxicity at 70.5 h: -7.48%

Cc1cc(C)n(-c2ccc(C(=O)NCC(CO)Cc3ccco3)cc2)n1 (stereo not given)
cytotoxicity at 70.5 h: -7.33%

CCc1cnc(N)nc1N[C@@H](C)c1ncccc1C
cytotoxicity at 70.5 h: -12.4%

CC1COCCN1Cc1nc(-c2cccs2)no1 (stereo not given)
cytotoxicity at 70.5 h: -31%

COC(=O)c1ccc(N2CCN(C(=O)c3ccc(O)nc3)C(C)C2)cc1 (stereo not given)
cytotoxicity at 70.5 h: -7.53%

O=C(O)CN(C(=O)c1ccccc1)[C@H]1C[C@H]2CCOC[C@H]2C1
cytotoxicity at 70.5 h: -10.1%

N[C@H]1CN(CCCOc2ccccc2)C[C@@H]1C1CC1
cytotoxicity at 70.5 h: -3.74%

CC(C)N(C)C(=O)c1ccc(CNc2ncc(C#N)cc2Cl)cc1
cytotoxicity at 70.5 h: 18.7%

CCCc1noc(C2CC(=O)N(CCN(C)C)C2)n1 (stereo not given)
cytotoxicity at 70.5 h: -18.6%

CN(CC(=O)NCc1ccccn1)CC1CCCN1c1cccnn1 (stereo not given)
cytotoxicity at 70.5 h: 0.56%

c1cnn(CC2CCCCN2Cc2nc(-c3ccsc3)no2)c1 (stereo not given)
cytotoxicity at 70.5 h: -4.27%

Cc1cccc(C(=O)N2CCN(S(C)(=O)=O)[C@@H](C)C2)c1Cl
cytotoxicity at 70.5 h: -102%

CCC[C@H]1CN(CCS(C)(=O)=O)C[C@@H]1NC(=O)Cn1cc(C)cn1
cytotoxicity at 70.5 h: -6.99%

Cc1ccc(C(C)NC(=O)CNCCn2cccn2)cc1C (stereo not given)
cytotoxicity at 70.5 h: -10.7%

CC(=O)c1cccc(NC(=O)C2CN(S(=O)(=O)C3CC3)C2)c1
cytotoxicity at 70.5 h: -2.67%

CCC(CO)N(Cc1cccs1)C(=O)Cc1ccc(O)cc1 (stereo not given)
cytotoxicity at 70.5 h: 16.3%

COC(=O)N1CCCCC1C(=O)N(C)Cc1cc(-c2cccnc2)no1 (stereo not given)
cytotoxicity at 70.5 h: -8.4%

COC(=O)CCCN(C)C(c1cccnc1)c1ccc(F)cc1F (stereo not given)
cytotoxicity at 70.5 h: 5.6%

COCC(=O)N1CCc2ncc(Cn3cncn3)n2CC1
cytotoxicity at 70.5 h: -16.6%

Cc1ccc(=O)n(Cc2nc(C(C)OCC(C)C)no2)n1 (stereo not given)
cytotoxicity at 70.5 h: 3.26%

O=C(Cc1ccccn1)N1CCC2(CC1)CN(c1ccccn1)CCO2
cytotoxicity at 70.5 h: -6.92%

CCc1ncc(CN2CCN(CCOC)CC2)cn1
cytotoxicity at 70.5 h: 7.17%

COc1ccc(NC(=O)NCC(O)c2ccc(F)cc2F)c(OC)c1 (stereo not given)
cytotoxicity at 70.5 h: 2.76%

CN(C)C(=O)N1C[C@H]2CN(Cc3cccc(F)c3)C(=O)[C@H]2C1
cytotoxicity at 70.5 h: -9.2%

Cc1ccc(-c2nc(CNCC3CN(C)CCO3)co2)c(C)c1 (stereo not given)
cytotoxicity at 70.5 h: 5.24%

O=c1oc(-c2cccs2)nn1CC(O)c1ccccc1 (stereo not given)
cytotoxicity at 70.5 h: -13.3%

NCCO[C@H]1C[C@@H](O)C12CCN(Cc1c(F)cccc1F)CC2
cytotoxicity at 70.5 h: -7.05%

COc1ccc(CN2CCCn3cnc(COCC4CC4)c3C2)cc1
cytotoxicity at 70.5 h: 1.46%

CN(C)C(=O)NCc1ncn2c1CN(Cc1cccs1)CCC2
cytotoxicity at 70.5 h: -3.13%

Cn1cc(C(=O)NCc2cn3c(n2)CN(C2CCOCC2)CC3)cn1
cytotoxicity at 70.5 h: -109%

Cn1cnc2c1CCN(Cc1csc(C3CCCC3)n1)C2
cytotoxicity at 70.5 h: -9.44%

O=C(c1c[nH]c2ncccc12)N(Cc1ccco1)C1CCCC1
cytotoxicity at 70.5 h: -3.94%

Cc1ccccc1OCC1CCCN(C(=O)CNC(=O)N(C)C)C1 (stereo not given)
cytotoxicity at 70.5 h: 16.8%

O=C1NCCN(CC2CC2)C12CCN(Cc1ccco1)CC2
cytotoxicity at 70.5 h: 12.8%

O=C(CN1CCC(c2cc(=O)n3c(n2)CCCCC3)CC1)N1CCCC1
cytotoxicity at 70.5 h: 1.49%

O=C1CCC(=O)N1CCN1CCN(c2cc(F)ccc2F)CC1
cytotoxicity at 70.5 h: -3.59%

CN(C(=O)NCc1ccncc1)C1CCCN(c2ccccc2)C1=O (stereo not given)
cytotoxicity at 70.5 h: -4.3%

COc1cc(C2CC(=O)c3c(O)cc(O)cc3O2)ccc1O (stereo not given)
cytotoxicity at 70.5 h: -8.7%

CCCc1cc(N2CCCCC2Cn2cc(C)cn2)n2ncnc2n1 (stereo not given)
cytotoxicity at 70.5 h: -6.83%

O=C(Cc1ccc(-n2cccn2)cc1)N1CCCC(n2cccn2)C1 (stereo not given)
cytotoxicity at 70.5 h: 17.4%

COc1cc(N2CCCC(c3nccn3Cc3cscn3)C2)nc(N)n1 (stereo not given)
cytotoxicity at 70.5 h: -8.38%

OCc1ccc(Cl)c(NCc2cccnc2)c1
cytotoxicity at 70.5 h: 19.4%
